From patent US10570179B2, “Substituted urea depsipeptide analogs as activators of the CLPP endopeptidase” (priority 2016, dated 2020)
Converted amounts (≈) assume the structure as drawn. Read-outs that look alike come from different tables or passages of the source. Numbered stars: 1 amine (or outer) side, 2 acyl side, 3 side chain; on linkers, the order of the positions; unused ones are H or OH. Bridge positions count the residues as written; N and C are the ends. Square brackets hold non-standard residues; d marks the D form. Peptide text beside a SMILES is read from it. * marks the point of attachment. Phe(3,5-Me2) = Cc1cc(C)cc(C[C@H](N)C(=O)O)c1; Phe(3-Me) = Cc1cccc(C[C@H](N)C(=O)O)c1; NH(4-Cl-2-F-phenyl) = Fc1cc(Cl)ccc1N*; Pro(4R-Me) = C[C@H]1CN[C@H](C(=O)O)C1; NH(4-Me-phenyl) = Cc1ccc(N*)cc1; aThr = C[C@H](O)[C@H](N)C(=O)O; Pip = O=C(O)[C@@H]1CCCCN1; CO = O=C([*:1])[*:2]

What was measured:
[1] = Microsomal metabolic stability; assay type: in vitro ADME, mouse
Experimental: Compounds were initially prepared by dissolving them into DMSO at a final concentration of 10 mM. NADPH regenerating solutions A and B and mouse liver microsomes (CD-1) were obtained from BD Gentest (Woburn, Mass.). Ninety-six well deep well plates were obtained from MidWest Scientific Inc (Valley Park, Mo.).
Sample preparation for microsomal stability was modified from methods of Di, L., et al., Int J Pharm. 2005 Jun. 13; 297(1-2):110-9. A set of incubation times of 0, 15, 30, 60, 120, and 240 minutes were used. Mouse liver microsomal solutions were prepared by adding 58 μL of concentrated human or mouse liver microsomes (20 mg/mL protein concentration) to 1.756 mL of 0.1 M potassium phosphate buffer (pH 7.4) and 5 μL of 0.5 M EDTA to make a 0.6381 mg/mL (protein) microsomal solution. NADPH regenerating agent contained 113 μL of NADPH A, 23 μL of NADPH B, and 315 μL of 0.1 M potassium phosphate buffer (pH 7.4). The diluted test compound solutions (2 μL) were each added directly to a 1.79 mL of liver microsomal solution. This solution was mixed and 90 μL was transferred to 6 time points plates (each in triplicate wells). For the time 0 plate, 225 μL of cold acetonitrile with internal standard ([…] warfarin) was added to each well, followed by addition of NADPH regenerating agent (22.5 μL) and no incubation. For other five time points' plate, NADPH regenerating agent (22.5 μL) was added to each well to initiate the reaction. The plates were incubated at 37° C. for the required time, followed by quenching of the reaction by adding 225 μL of cold acetonitrile with internal standard (4 μg/ml warfarin). All of the plates were sealed and mixed well at 600 rpm for 10 minutes followed by centrifugation at 4000 rpm for 20 minutes. The supernatants (120 μL) were transferred to analytical plates for analysis by LCMS. LCMS conditions were described in the materials and instrumentation section above. The metabolic stability is evaluated via the half-life from least-squares fit of the multiple time points based on first-order kinetics.

Sa-ClpP = target: T1, Sa-ClpP (Staphylococcus aureus, UniProt Q2G036); experiment: ADEP displacement fluorescence polarization assay; assay type: binding, S. aureus; conditions: displacement of FP probe ADEP 2591 from Sa-ClpP
T1 construct: made in house; host or cells: E. coli BL21 (DE3)
Experimental: A fluorescence polarization (FP) assay was used to determine the activity of the disclosed compounds in displacing an ADEP analogue from ClpP. Briefly, the assay was performed in black 384 well, flat bottom, low volume plates (Greiner Bio-One, Monroe, N.C., catalog #784076). 20 μL of a pre-equilibrated (1 hr, room temperature) master mix (15 μM Sa-ClpP, 2% DMSO (v/v) and 50 nM FP probe in TrisHCl, pH 8.0)) was pipetted into each well using a Well-Mate (Thermo Scientific, Waltham, Mass.). Sa-ClpP was prepared as described above for the ClpP activation assay. The FP probe was ADEP 2591 (structure shown above). The ADEP 2591 comprises a TAMRA fluorophore linked to a core based on modified ADEP 2378 via a short alkyl linker. Using pin transfer, approximately 0.4 μL (2% v/v DMSO) of each compound or control was added per well. After addition of compounds and controls, plates were allowed to incubate for an additional 120 minutes at room temperature. All assays were performed in triplicate. Polarization was monitored using an EnVision Multilabel reader (Perkin-Elmer, Waltham, Mass.) by exciting the FP probe at 530±25 nm, and monitoring fluorescence intensity of both parallel and perpendicular polarized light at 579±25 nm. Readout was in millipolarization units (mP).
Signal gain and G factors were determined in wells containing 200 μM ADEP 2378, which had been previously verified (data not shown) as containing completely unbound ADEP 2591. Data collected was normalized to values obtained from positive (200 μM ADEP 2378) or negative (DMSO) controls. Curves were fit with non-linear regression using the equation “log [inhibitor] vs. Response-variable slope (four parameters)-symmetrical” in the program Prism 6 (GraphPad Software, La Jolla, Calif. USA, www.graphpad.com). The structures for ADEP 2378 and ADEP 2591 are shown above. ADEP 2378 is (E)-N—((S)-1-(((2R,6S,8aS,14aS,20S,23aS)-2,6-dimethyl-5,8,14,19,23-pentaoxooctadecahydro-1H,5H,14H,19H-pyrido[2,1-i]dipyrrolo[2,1-c:2′,1′-1][1]oxa[4,7,10,13]tetraazacyclohexadecin-20-yl)amino)-1-oxo-3-phenylpropan-2-yl)pent-2-enamide. ADEP 2591 is 5-(3-(3-((6S,9S,11aS,17S,20aS)-6,10-dimethyl-5,8,11,16,20-pentaoxo-17-((S)-2-((E)-pent-2-enamido)-3-phenylpropanamido)hexadecahydro-1H,5H,16H-dipyrrolo[2,1-c:2′,1′-1][1]oxa[4,7,10,13]tetraazacyclohexadecin-9-yl)propyl)thioureido)-2-(6-(dimethylamino)-3-(dimethyliminio)-3H-xanthen-9-yl)benzoate.

S. aureus USA 300 = experiment: Minimal inhibitory concentration, microbroth dilution; assay type: cell-based; conditions: Staphylococcus aureus
In short: (§1)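 MIC is recorded by eye as the lowest drug concentration that stops bacterial growth. Compound is serially diluted twofold in broth, starting at 200 μM final, and bacteria are added at roughly 10^5 cfu/mL. Incubation runs overnight at 37 °C under aerobic conditions, per CLSI guidance.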

MRSA NRS70 = experiment: as above; assay type: cell-based; conditions: Staphylococcus aureus
In short: as §1

E. faecails = experiment: as above; assay type: cell-based; conditions: Enterococcus faecalis
In short: as §1

S. aureus ATCC 29213 = experiment: as above; assay type: cell-based; conditions: Staphylococcus aureus
In short: as §1

[2] = microsomal metabolic stability half-life, mouse liver microsomes
[3] = USA300, read-out: Minimal Inhibitory Concentrations (μM) S. aureus USA 300, MIC
[4] = read-out: Minimal Inhibitory Concentrations (μM) MRSA NRS70, MIC
[5] = read-out: Minimal Inhibitory Concentrations (μM) E. faecails, MIC
[6] = ATCC29213, read-out: Minimal Inhibitory Concentrations (μM) S. aureus ATCC 29213, MIC

T1 sequence (Q2G036 whole entry): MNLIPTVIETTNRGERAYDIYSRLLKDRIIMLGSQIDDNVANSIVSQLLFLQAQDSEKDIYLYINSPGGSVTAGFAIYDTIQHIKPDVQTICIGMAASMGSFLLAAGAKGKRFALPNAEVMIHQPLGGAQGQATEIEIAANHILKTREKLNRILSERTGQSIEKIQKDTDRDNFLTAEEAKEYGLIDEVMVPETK

| Structure (SMILES) | Mouse [1, 2] [h] | IC50 (Sa-ClpP) [µM] | MIC (S. aureus USA 300; [3]) [µM] | MIC (MRSA NRS70; [4]) [µM] | MIC (E. faecails; [5]) [µM] | MIC (S. aureus ATCC 29213; [6]) [µM] | Mouse ([1]; CD-1, mouse, pH 7.4) [h] | MIC (S. aureus USA 300; USA300, MIC, read-out: Minimal Inhibitory Concentrations (μM) S. aureus USA 300) [µM] | MIC (MRSA NRS70; MIC, read-out: Minimal Inhibitory Concentrations (μM) MRSA NRS70) [µM] | MIC (E. faecails; MIC, read-out: Minimal Inhibitory Concentrations (μM) E. faecails) [µM] | MIC (S. aureus ATCC 29213; ATCC29213, MIC, read-out: Minimal Inhibitory Concentrations (μM) S. aureus ATCC 29213) [µM] |
| --- | --- | --- | --- | --- | --- | --- | --- | --- | --- | --- | --- |
| Cc1ccc(NC(=O)N[C@@H](Cc2cccc(C)c2)C(=O)N[C@@H]2C(=O)N3CCC[C@H]3C(=O)N3CCCC[C@H]3C(=O)N[C@@H](C)C(=O)N3C[C@H](C)C[C@H]3C(=O)O[C@H]2C)cc1 [Compound 1, (S)-3-(M-TOLYL)-2-(3-(P-TOLYL)UREIDO)-N-((2R,6S,8AS,14AS,20S,21S,23AS)-2,6,21-TRIMETHYL-5,8,14,19,23-PENTAOXOOCTADECAHYDRO-1H,5H,14H,19H-PYRIDO[2,1-I]DIPYRROLO[2,1-C:2′,1′-L][1]OXA[4,7,10,13]TETRAAZACYCLOHEXADECIN-20-YL)PROPANAMIDE] ({NH(4-Me-phenyl)-CO}-[Phe(3-Me)][aThr]P[Pip]A[Pro(4R-Me)]; ester 2-C) | 5.22 | 7.48 ± 0.5 | < 0.098 | 0.156 (≈ 0.123 µg/mL) | 1.25 (≈ 0.982 µg/mL) | 0.313 (≈ 0.246 µg/mL) | – | – | – | – | – |
| Cc1ccc(NC(=O)N[C@@H](Cc2cc(C)cc(C)c2)C(=O)N[C@@H]2C(=O)N3CCC[C@H]3C(=O)N3CCCC[C@H]3C(=O)N[C@@H](C)C(=O)N3C[C@H](C)C[C@H]3C(=O)O[C@H]2C)cc1 [Compound 2, (S)-3-(3,5-DIMETHYLPHENYL)-2-(3-(P-TOLYL)UREIDO)-N-((2R,6S,8AS,14AS,20S,21S,23AS)-2,6,21-TRIMETHYL-5,8,14,19,23-PENTAOXOOCTADECAHYDRO-1H,5H,14H,19H-PYRIDO[2,1-I]DIPYRROLO[2,1-C:2′,1′-L][1]OXA[4,7,10,13]TETRAAZACYCLOHEXADECIN-20-YL)PROPANAMIDE] ({NH(4-Me-phenyl)-CO}-[Phe(3,5-Me2)][aThr]P[Pip]A[Pro(4R-Me)]; ester 2-C) | 2.85 | 8.82 ± 0.4 | 0.781 (≈ 0.625 µg/mL) | 0.313 (≈ 0.25 µg/mL) | 2.5 (≈ 2 µg/mL) | 1.25 (≈ 1 µg/mL) | – | – | – | – | – |
| Cc1cccc(C[C@H](NC(=O)Nc2ccc(Cl)cc2F)C(=O)N[C@@H]2C(=O)N3CCC[C@H]3C(=O)N3CCCC[C@H]3C(=O)N[C@@H](C)C(=O)N3C[C@H](C)C[C@H]3C(=O)O[C@H]2C)c1 [Compound 3, (S)-2-(3-(4-CHLORO-2-FLUOROPHENYL)UREIDO)-3-(M-TOLYL)-N-((2R,6S,8AS,14AS,20S,21S,23AS)-2,6,21-TRIMETHYL-5,8,14,19,23-PENTAOXOOCTADECAHYDRO-1H,5H,14H,19H-PYRIDO[2,1-I]DIPYRROLO[2,1-C:2′,1′-L][1]OXA[4,7,10,13]TETRAAZACYCLOHEXADECIN-20-YL)PROPANAMIDE] ({NH(4-Cl-2-F-phenyl)-CO}-[Phe(3-Me)][aThr]P[Pip]A[Pro(4R-Me)]; ester 2-C) | – | 6.61 ± 0.28 | – | – | – | – | 11.65 ± 2.2 | 0.156 (≈ 0.129 µg/mL) | 0.078 (≈ 0.0643 µg/mL) | 0.078 (≈ 0.0643 µg/mL) | 0.156 (≈ 0.129 µg/mL) |
